Holding throughout (assay type): cell-based
Experiment [1] concerns Escherichia coli ATCC 8739, Pseudomonas aeruginosa ATCC 9027, Staphylococcus aureus ATCC 6538, Candida albicans ATCC 10231, Aspergillus brasiliensis ATCC 16404. The experiment is described as follows: five-species minimum inhibitory concentration (five-species MIC), microplate turbidity test.
Procedure: Test solutions containing these microorganisms were prepared as follows: the bacteria were precultured on SCD (soybean casein digest) liquid medium and the yeast and fungus were precultured on glucose agar medium; this was followed in each case by adjustment of the microorganism concentration in the liquids to the level of 10^6 to 10^7 cfu/mL using 0.9% aqueous NaCl solution.
20 μL of each test solution was dispensed onto a microplate; 180 μL of each antimicrobial composition—prepared by the dilution with medium of component (B) and component (C) at the prescribed concentrations given in Table 1 and component (A) at various concentrations was added; and stirring was carried out to provide a mixed solution (the test sample). Component (A), component (B), and component (C) were prepared here so as to provide the prescribed concentrations in mass % in the mixed solutions. Each mixed solution was then cultured as follows: 48 hours in a thermostat at 33° C. for the bacterial mixed solutions; 3 days at 25° C. for the yeast mixed solutions; and 1 week at 25° C. for the fungus mixed solutions. The post-culture turbidity of each mixed solution was observed. For each microorganism, the mixed solutions containing component (A) at the various concentrations, and each blending condition for component (B) or component (C) (each of the mixed solutions), those mixed solutions were identified where turbidity or the presence of colonies/filaments was not seen (i.e., mixed solutions where growth of the test microorganism had been stopped). For each of the five microorganisms, the lowest component (A) concentration in the mixed solutions where growth had been stopped was designated the minimum inhibitory concentration. […] In addition, the antimicrobial activity (enhancement effect) was evaluated also using the numerical MIC values given in those instances where a “+” or “−” is provided.
Experiment [2] has as its system Escherichia coli (bacteria) ATCC 8739. The experiment is described as follows: minimum inhibitory concentration (MIC), microplate turbidity test. To be noted: mass % of component (A) (A-4 or A-5); 48 hours at 33° C.; component (B)/(C) at 5%. How it is done: (§1) E. coli: Escherichia coli (bacteria) ATCC 8739 Test solutions containing these microorganisms were prepared by preculture on SCD liquid medium followed by adjusting the microorganism concentration in the liquids to the level of 10^6 to 10^7 cfu/mL using a 0.9% aqueous NaCl solution. 20 μL of each test solution was dispensed onto a microplate; 180 μL of each antimicrobial composition—prepared by the dilution with medium of component (B) and component (C) at the prescribed concentrations and component (A) at various concentrations—was added; and stirring was carried out to provide a mixed solution (the test sample). Component (A), component (B), and component (C) were prepared here so as to provide the prescribed concentrations in mass % in the mixed solutions. Each mixed solution was then cultured for 48 hours in a thermostat at 33° C., after which the turbidity of each mixed solution was observed. […]

Experiment [3] relates to Pseudomonas aeruginosa (bacteria) ATCC 9027. The description is as above. To be noted: mass % of component (A) (A-4 or A-5); 48 hours at 33° C.; component (B)/(C) at 5%. On the procedure:
as §1, with “P. aer: Pseudomonas aeruginosa” for “E. coli: Escherichia coli”, “9027” for “8739”

Consider `CCCCC(CC)COCC(O)CO` (stereo not shown) [Comp. Ex. 1, 2-ethylhexyl glyceryl ether], for which the “five-species MIC (%)” value in experiment [1] (Table 1, mass % of component (A) A-1 at which growth of all five microorganisms stopped, component (B)/(C) at prescribed %) is 1.00+ %.
On to `OCC(O)COC1CCCCC1` (stereo not shown) [Comp. Ex. 9, cyclohexyl glyceryl ether], for which the “five-species MIC (%)” value in experiment [1] (Table 3, mass % of component (A) A-3 at which growth of all five microorganisms stopped, component (B) at prescribed %) is 3.00%.
For `CCCCCCOCC(O)CO` (stereo not shown) [compound 14, hexyl glyceryl ether], in experiment [2], the “MIC (%) E. coli” value stood at 0.25%. Further, the “MIC (%) P. aer” value in experiment [3] stood at 0.75%.
On to `CCCCCCCCOCC(O)CO` (stereo not shown) [Comp. Ex. 5, octyl glyceryl ether], for which the “five-species MIC (%)” value in experiment [1] (Table 2, mass % of component (A) A-2 at which growth of all five microorganisms stopped, component (B)/(C) at prescribed %) is listed as 0.50+ %.
As to `CCCCCCC(O)CO` (stereo not shown) [Comp. Ex. 10, 1,2-octanediol], the “MIC (%) E. coli” value in experiment [2] is given as 0.13%. The “MIC (%) P. aer” value in experiment [3] is given as 0.38%.

These data come from patent US11260003B2, “Antimicrobial composition and cosmetic containing antimicrobial composition” (ADEKA CORPORATION, priority 2017, dated 2022).
